Assay results: ChEMBL document CHEMBL4507327 (2021)

Key:
[1] = GPCRScan assay: inhibition of GABA/PBR; parameters: species or system Rattus norvegicus; radioligand conc. used [nm] 0.3 – 2.0, parental cells brain tissue
[2] = target: Alpha-1D adrenergic receptor (Homo sapiens) (UniProt P25100); assay: Inhibition of Adrenergic alpha1D at 10 µM in the Eurofins-Panlabs radioligand binding assay (Eurofins_assay_203400); conditions: Compound concentration 10.0 uM
[3] = target: Prostaglandin E2 receptor EP4 subtype (Homo sapiens) (UniProt P35408); assay: Inhibition of Prostanoid EP4 at 10 µM in the Eurofins-Panlabs radioligand binding assay (Eurofins_assay_268420); parameters: ligand concentration 1 nM; conditions: Compound concentration 10.0 uM
[4] = target: Mitogen-activated protein kinase kinase kinase kinase 4 (Homo sapiens, UniProt O95819); assay: HGK [ZC1(M4K4CGP1)] Takeda global kinase panel
[5] = target: Mitogen-activated protein kinase 4 (Homo sapiens, UniProt P31152); assay: ERK4(MAP4LGY1) Takeda global kinase panel
[6] = target: Serine/threonine-protein kinase SIK1 (Homo sapiens, UniProt P57059); assay: SIK(SIK1LHY1) Takeda global kinase panel
[7] = target: STE20/SPS1-related proline-alanine-rich protein kinase (Homo sapiens, UniProt Q9UEW8); assay: STLK3(ST39LGRJ) Takeda global kinase panel
[8] = target: 5-hydroxytryptamine receptor 2B (Homo sapiens) (UniProt P41595); conditions: Compound concentration 10.0 uM
[9] = target: 5-hydroxytryptamine receptor 2C (Homo sapiens) (UniProt P28335); conditions: Compound concentration 10.0 uM
[10] = target: D(2) dopamine receptor (Homo sapiens) (UniProt P14416); conditions: Compound concentration 10.0 uM
[11] = target: D(3) dopamine receptor (Homo sapiens) (UniProt P35462); conditions: Compound concentration 10.0 uM
[12] = target: Histamine H2 receptor (Homo sapiens) (UniProt P25021); conditions: Compound concentration 10.0 uM
[13] = target: Alpha-2B adrenergic receptor (Homo sapiens) (UniProt P18089); conditions: Compound concentration 10.0 uM
[14] = target: T1, Muscarinic acetylcholine receptor M2 (Homo sapiens) (UniProt P08172); conditions: Compound concentration 10.0 uM
T1 sequence (whole entry): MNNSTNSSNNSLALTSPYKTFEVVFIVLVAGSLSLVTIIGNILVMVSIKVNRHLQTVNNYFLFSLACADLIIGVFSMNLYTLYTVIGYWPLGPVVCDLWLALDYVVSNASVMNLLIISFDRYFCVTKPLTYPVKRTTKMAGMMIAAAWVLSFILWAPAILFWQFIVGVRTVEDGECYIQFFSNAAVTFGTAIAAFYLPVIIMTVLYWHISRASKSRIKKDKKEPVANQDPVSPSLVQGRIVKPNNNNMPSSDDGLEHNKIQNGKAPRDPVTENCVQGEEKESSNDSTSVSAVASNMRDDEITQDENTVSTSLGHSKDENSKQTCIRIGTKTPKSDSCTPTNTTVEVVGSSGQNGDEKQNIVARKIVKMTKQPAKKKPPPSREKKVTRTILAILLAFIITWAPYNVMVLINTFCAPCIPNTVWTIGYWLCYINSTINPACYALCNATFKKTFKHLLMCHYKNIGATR

[15] = target: Muscarinic acetylcholine receptor M5 (Homo sapiens) (UniProt P08912); conditions: Compound concentration 10.0 uM
[16] = target: Endothelin-1 receptor (Homo sapiens) (UniProt P25101); conditions: Compound concentration 10.0 uM
[17] = species: Oryctolagus cuniculus; conditions: Compound concentration 10.0 uM
[18] = target: hERG (KCNH2) (Homo sapiens, UniProt Q12809); assay: Inhibition of Potassium Channel hERG at 10 µM in the Eurofins-Panlabs radioligand binding assay (Eurofins_assay_265900); parameters: ligand concentration 1.5 nM, non-specific ligand with concentration Astemizole, incubation time 60 min, incubation temperature 25 °C; conditions: HEK-293 cells that express human recombinant hERG, probe [3H] Astemizole, compound concentration 10 uM
[19] = target: Inhibitor of nuclear factor kappa-B kinase subunit alpha (Homo sapiens, UniProt O15111); assay: IKKalpha(CHUKLGP1) Takeda global kinase panel
[20] = target: Inhibitor of nuclear factor kappa-B kinase subunit beta (Homo sapiens, UniProt O14920); assay: IKKbeta(IKBBLHY1) Takeda global kinase panel
[21] = target: Inhibitor of nuclear factor kappa-B kinase subunit epsilon (Homo sapiens, UniProt Q14164); assay: IKKepsilon(IKBELGY1) Takeda global kinase panel
[22] = target: MAP kinase-activated protein kinase 2 (Homo sapiens, UniProt P49137); assay: MAPKAPK2(MPK2LGRH) Takeda global kinase panel
[23] = target: AP2-associated protein kinase 1 (Homo sapiens, UniProt Q2M2I8); assay: AAK1(AAK1LGF1) Takeda global kinase panel
[24] = target: Calcium/calmodulin-dependent protein kinase type II subunit alpha (Homo sapiens, UniProt Q9UQM7); assay: CaMK2alpha(CA2ACGT1) Takeda global kinase panel
[25] = target: Calcium/calmodulin-dependent protein kinase type II subunit beta (Homo sapiens, UniProt Q13554); assay: CaMK2beta(CA2BCGT1) Takeda global kinase panel
[26] = target: Calcium/calmodulin-dependent protein kinase kinase 2 (Homo sapiens, UniProt Q96RR4); assay: CAMKK2(CAK2LGT5) Takeda global kinase panel
[27] = target: Ephrin type-A receptor 2 (Homo sapiens, UniProt P29317); assay: EphA2(EPA2LGY1) Takeda global kinase panel
[28] = target: Glycogen synthase kinase-3 alpha (Homo sapiens, UniProt P49840); assay: GSK3alpha(GS3ALGK1) Takeda global kinase panel
[29] = target: Homeodomain-interacting protein kinase 3 (Homo sapiens, UniProt Q9H422); assay: HIPK3(HIP3LGF1) Takeda global kinase panel
[30] = target: Tyrosine-protein kinase JAK2 (Homo sapiens, UniProt O60674); assay: JAK2(JAK2LGF1) Takeda global kinase panel
[31] = target: Leucine-rich repeat serine/threonine-protein kinase 2 (Homo sapiens, UniProt Q5S007); assay: LRRK2(LRR2PGF1) Takeda global kinase panel
[32] = target: Tyrosine-protein kinase Lyn (Homo sapiens, UniProt P07948); assay: Lyn(LYN1LGF1) Takeda global kinase panel
[33] = target: Mitogen-activated protein kinase 7 (Homo sapiens, UniProt Q13164); assay: ERK5(MAP7LGF1) Takeda global kinase panel
[34] = target: Serine/threonine-protein kinase Sgk1 (Homo sapiens, UniProt O00141); assay: SGK1(SGK1LGF1) Takeda global kinase panel
[35] = target: Proto-oncogene tyrosine-protein kinase Src (Homo sapiens, UniProt P12931); assay: Src(SRC1LGF5) Takeda global kinase panel
[36] = target: Serine/threonine-protein kinase 25 (Homo sapiens, UniProt O00506); assay: YSK1(ST25LHY1) Takeda global kinase panel
[37] = target: Serine/threonine-protein kinase 38-like (Homo sapiens, UniProt Q9Y2H1); assay: NDR2(S38LLGF1) Takeda global kinase panel
[38] = target: Angiopoietin-1 receptor (Homo sapiens, UniProt Q02763); assay: TIE2(TEK1LGF1) Takeda global kinase panel

Histamine H2 receptor (Homo sapiens), sequence (P25021 whole entry): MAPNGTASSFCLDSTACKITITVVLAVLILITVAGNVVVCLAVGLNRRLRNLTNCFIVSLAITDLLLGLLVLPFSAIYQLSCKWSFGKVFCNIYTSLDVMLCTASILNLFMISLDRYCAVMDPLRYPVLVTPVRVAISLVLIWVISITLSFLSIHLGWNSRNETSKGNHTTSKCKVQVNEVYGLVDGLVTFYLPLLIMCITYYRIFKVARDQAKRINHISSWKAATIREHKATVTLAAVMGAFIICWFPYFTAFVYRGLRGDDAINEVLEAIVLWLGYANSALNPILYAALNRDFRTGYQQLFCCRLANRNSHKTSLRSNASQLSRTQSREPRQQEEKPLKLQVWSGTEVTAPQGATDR
Tyrosine-protein kinase JAK2, sequence (O60674 whole entry): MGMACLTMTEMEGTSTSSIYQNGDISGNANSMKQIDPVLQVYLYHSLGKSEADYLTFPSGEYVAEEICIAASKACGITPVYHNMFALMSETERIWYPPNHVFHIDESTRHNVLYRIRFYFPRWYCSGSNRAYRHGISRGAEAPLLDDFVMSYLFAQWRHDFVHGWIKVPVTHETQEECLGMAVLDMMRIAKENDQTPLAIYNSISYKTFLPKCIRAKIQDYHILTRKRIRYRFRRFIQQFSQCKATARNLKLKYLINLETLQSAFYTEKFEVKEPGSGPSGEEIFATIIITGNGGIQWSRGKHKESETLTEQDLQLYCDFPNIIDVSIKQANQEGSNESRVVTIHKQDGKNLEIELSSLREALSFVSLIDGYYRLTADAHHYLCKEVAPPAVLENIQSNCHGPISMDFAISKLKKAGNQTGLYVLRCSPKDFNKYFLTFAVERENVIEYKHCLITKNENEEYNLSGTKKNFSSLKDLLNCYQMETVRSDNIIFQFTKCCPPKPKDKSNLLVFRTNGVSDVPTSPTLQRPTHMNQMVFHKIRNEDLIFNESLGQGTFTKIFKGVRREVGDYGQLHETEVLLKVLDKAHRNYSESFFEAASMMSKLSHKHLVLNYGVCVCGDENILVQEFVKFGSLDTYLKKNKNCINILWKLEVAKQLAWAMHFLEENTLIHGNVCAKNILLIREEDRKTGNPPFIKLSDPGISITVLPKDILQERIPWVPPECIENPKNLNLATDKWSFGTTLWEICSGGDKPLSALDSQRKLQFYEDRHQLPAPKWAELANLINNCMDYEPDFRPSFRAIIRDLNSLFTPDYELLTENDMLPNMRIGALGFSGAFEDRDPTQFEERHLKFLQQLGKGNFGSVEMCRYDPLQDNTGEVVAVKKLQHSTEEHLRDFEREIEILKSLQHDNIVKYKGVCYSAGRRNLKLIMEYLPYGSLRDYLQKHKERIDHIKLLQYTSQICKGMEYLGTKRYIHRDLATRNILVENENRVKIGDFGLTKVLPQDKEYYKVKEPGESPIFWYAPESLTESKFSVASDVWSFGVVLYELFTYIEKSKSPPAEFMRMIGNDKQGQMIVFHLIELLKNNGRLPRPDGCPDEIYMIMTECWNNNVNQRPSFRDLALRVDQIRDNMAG
Mitogen-activated protein kinase 7, sequence (Q13164 whole entry): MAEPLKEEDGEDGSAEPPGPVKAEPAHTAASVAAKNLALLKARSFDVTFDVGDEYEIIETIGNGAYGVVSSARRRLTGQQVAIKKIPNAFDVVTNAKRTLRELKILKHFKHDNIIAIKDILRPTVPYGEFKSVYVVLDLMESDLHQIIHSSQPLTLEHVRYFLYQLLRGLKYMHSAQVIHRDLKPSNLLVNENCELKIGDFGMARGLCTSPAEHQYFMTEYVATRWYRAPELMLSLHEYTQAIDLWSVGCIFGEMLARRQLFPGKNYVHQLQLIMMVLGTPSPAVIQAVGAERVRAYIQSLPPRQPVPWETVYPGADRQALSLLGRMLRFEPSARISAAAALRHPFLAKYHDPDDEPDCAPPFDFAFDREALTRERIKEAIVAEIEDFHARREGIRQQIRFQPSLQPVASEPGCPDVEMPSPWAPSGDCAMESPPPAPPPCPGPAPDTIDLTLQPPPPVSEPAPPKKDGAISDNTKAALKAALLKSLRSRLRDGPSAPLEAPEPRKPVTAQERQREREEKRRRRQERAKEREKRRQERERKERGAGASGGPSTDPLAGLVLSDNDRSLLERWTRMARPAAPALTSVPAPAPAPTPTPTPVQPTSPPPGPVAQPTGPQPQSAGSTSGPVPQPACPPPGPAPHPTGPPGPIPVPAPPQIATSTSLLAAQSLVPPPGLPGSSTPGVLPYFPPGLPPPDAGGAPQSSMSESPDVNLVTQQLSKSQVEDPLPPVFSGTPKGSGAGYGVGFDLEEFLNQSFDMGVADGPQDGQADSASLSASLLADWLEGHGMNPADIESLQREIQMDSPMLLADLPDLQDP
Serine/threonine-protein kinase 25, sequence (O00506 whole entry): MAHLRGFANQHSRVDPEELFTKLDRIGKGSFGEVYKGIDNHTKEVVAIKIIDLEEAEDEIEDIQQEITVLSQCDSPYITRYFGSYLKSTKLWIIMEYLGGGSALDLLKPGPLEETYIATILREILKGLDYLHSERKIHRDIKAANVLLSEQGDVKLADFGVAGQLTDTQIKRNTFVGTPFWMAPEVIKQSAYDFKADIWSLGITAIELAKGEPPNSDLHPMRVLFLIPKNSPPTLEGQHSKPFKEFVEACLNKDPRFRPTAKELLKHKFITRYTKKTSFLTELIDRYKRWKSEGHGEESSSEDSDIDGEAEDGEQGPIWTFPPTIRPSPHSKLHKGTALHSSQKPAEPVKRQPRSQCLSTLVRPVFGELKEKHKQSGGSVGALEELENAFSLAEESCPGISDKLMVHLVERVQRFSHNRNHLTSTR
Tyrosine-protein kinase Lyn, sequence (P07948 whole entry): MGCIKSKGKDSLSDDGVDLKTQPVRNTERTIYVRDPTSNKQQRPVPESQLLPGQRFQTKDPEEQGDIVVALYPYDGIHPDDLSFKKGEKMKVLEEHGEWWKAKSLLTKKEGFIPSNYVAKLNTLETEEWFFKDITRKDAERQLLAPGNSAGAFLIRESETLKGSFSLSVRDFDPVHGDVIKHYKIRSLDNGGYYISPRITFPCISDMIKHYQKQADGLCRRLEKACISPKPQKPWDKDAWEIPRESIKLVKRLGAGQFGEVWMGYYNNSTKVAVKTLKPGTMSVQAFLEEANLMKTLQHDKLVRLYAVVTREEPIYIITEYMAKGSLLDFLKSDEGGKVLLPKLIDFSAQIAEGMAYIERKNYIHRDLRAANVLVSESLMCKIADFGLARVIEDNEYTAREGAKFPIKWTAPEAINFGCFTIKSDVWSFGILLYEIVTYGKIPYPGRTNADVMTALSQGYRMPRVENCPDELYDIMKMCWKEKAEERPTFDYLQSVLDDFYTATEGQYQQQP
Inhibitor of nuclear factor kappa-B kinase subunit epsilon, sequence (Q14164 whole entry): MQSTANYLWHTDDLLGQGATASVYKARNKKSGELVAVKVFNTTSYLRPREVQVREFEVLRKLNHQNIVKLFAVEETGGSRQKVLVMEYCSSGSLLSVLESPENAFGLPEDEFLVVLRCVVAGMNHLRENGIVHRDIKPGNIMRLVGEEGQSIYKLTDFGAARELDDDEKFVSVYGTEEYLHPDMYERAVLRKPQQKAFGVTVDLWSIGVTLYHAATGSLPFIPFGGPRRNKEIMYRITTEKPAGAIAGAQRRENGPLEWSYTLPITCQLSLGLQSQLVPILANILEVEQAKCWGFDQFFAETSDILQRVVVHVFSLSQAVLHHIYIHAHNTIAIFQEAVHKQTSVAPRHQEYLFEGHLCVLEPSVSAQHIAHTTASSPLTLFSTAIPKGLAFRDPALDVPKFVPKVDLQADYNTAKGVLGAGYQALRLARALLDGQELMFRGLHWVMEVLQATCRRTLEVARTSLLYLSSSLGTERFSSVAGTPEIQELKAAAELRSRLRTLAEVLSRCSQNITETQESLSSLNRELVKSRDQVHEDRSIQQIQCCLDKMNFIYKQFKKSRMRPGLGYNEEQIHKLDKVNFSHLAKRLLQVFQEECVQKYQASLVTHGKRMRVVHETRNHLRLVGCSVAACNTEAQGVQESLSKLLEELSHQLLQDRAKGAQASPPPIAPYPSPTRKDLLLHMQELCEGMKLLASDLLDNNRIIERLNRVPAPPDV
Serine/threonine-protein kinase Sgk1, sequence (O00141 whole entry): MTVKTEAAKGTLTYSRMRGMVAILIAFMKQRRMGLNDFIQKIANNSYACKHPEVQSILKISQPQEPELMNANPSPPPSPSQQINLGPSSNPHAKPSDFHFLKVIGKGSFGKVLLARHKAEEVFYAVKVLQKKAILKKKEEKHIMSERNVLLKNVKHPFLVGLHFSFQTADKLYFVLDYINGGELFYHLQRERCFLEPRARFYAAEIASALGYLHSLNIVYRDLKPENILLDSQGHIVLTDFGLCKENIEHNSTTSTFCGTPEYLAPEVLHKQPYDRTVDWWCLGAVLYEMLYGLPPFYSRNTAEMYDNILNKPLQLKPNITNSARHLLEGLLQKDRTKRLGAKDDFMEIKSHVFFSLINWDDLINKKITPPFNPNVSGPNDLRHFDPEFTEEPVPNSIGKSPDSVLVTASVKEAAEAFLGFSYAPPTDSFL
Calcium/calmodulin-dependent protein kinase type II subunit alpha, sequence (Q9UQM7 whole entry): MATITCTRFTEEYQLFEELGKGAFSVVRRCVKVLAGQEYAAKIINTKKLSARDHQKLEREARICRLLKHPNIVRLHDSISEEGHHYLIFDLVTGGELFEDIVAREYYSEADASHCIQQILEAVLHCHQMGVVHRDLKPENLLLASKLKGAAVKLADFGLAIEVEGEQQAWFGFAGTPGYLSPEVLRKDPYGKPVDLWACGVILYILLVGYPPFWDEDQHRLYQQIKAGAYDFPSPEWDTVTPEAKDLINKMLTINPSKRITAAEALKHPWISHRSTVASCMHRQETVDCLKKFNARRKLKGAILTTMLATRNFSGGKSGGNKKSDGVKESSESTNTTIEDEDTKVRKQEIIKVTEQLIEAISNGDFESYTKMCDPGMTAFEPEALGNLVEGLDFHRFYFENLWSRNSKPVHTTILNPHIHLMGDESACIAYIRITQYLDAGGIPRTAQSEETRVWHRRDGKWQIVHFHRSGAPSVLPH

CN1C(=O)[C@@H](N2CCc3cn(Cc4ccccc4)nc3C2=O)COc2ccccc21 [TP-030-1]
375 nM: Ki [1]
inactive: inhibition [2] -2% | inhibition [3] 12% | inhibition [8] 12% | inhibition [9] -2.89% | inhibition [10] -5.46% | inhibition [11] -4.81% | inhibition [12] 11.9% | inhibition [13] 43.3% | inhibition [14] -4.37% | inhibition [15] 6.63% | inhibition [16] -5% | inhibition [17] -6%
6.425: pKi [1]
1000 nM: IC50 [4] | IC50 [5] | IC50 [6] | IC50 [7]

CN1C(=O)[C@@H](N2CCc3cn(CC4CCS(=O)(=O)CC4)nc3C2=O)COc2ccccc21 [TP-030n]
11% (not active): inhibition at 60 min, 10 µM [18]
1000 nM: IC50 [19] | IC50 [20] | IC50 [21] | IC50 [22] | IC50 [23] | IC50 [24] | IC50 [25] | IC50 [26] | IC50 [27] | IC50 [28] | IC50 [29] | IC50 [30] | IC50 [31] | IC50 [32] | IC50 [33] | IC50 [34] | IC50 [35] | IC50 [36] | IC50 [37] | IC50 [38]
